pEC50, pIC50: −log10 of the molar value. Where two headings read alike, the source gives them in different places.
How the values were obtained:
[1] = target: interaction between PD-1 and PD-L1 expressed on cell surfaces (Homo sapiens (Human), UniProt Q9NZQ7); test: Jurkat reporter gene cellular assay (Jurkat/NF-κB-luc/PD1 cells cocultured with Raji-PD-L1 cells, OKT-3 stimulation); format: cell-based
Method in brief: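 Jurkat cells stably expressing human PD-1 and NF-κB-luciferase were cocultured with Raji cells stably expressing human PD-L1 under OKT-3 stimulation, with compound present. Luminescence was read after 6 h.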

[2] = Pharmacokinetic assay in mice, per oral administration; format: in vivo; details: ICR mice
From the text: C. Pharmacokinetic Assay in Mice
The purpose of this study was to study the pharmacokinetic behaviors of some compounds of the present invention, and administration routes were: per oral administration (PO) to ICR mice:
The compounds used in this test came from the compounds of the specific examples of the present invention.
ICR mice male N=3 original source: Shanghai Sippr-BK Laboratory Animal Co. Ltd.
2.3 Preparation and Administration of Medicaments
The compounds were weighed, and dissolved in solvent of 0.5% SDS+0.5% CMCNa. The mixture solutions were mixed well by shaking and ultrasonic treatment to obtain colorless clear solutions. The solutions were orally administered to nine mice after an overnight fast. The dosage of administration was 10 mg/kg (or 30 mg/kg).
With about 90 μL/time point, blood was drawn from the submaxillary vein, and heparin sodium was added for anticoagulation. The blood samples were placed onto the ice, and were centrifuged (centrifugation conditions: 8000 r/min, 6 min, 2-8° C.) within 1 hr to obtain plasmas. The time points for blood sampling were at 0 hr, 0.25 hr, 0.5 hr, 1 hr, 2 hrs, 4 hrs, 6 hrs, 8 hrs and 24 hrs after administration. The samples were stored in a refrigerator at −20° C.
40 μL of plasma sample was added to 160 μL of cold acetonitrile containing an internal standard, and the mixture solution was vortexed for 3 min and centrifuged at 11,000 r/min for 5 min. 100 μL of supernate was taken and added to 100 μL of water, and 5 μL of the sample was taken and analyzed by LC/MS/MS. Only the original compounds were analyzed for examples 1, 3, 5, 8, 46 and 141 (for results, see table 2); and both the original compounds and possible products of ester hydrolysis, namely example 2, 27, 65 and 105, were analyzed for examples 4, 26, 64 and 104 (for results, see table 3).

[3] = target: interaction between PD-1 and PD-L1 (Homo sapiens (Human), UniProt Q9NZQ7); test: PD1-PDL1 HTRF binding activity test (Cisbio PD-1/PD-L1 binding assay kit)
Chain of interaction between PD-1 and PD-L1 (Q9NZQ7 19-238): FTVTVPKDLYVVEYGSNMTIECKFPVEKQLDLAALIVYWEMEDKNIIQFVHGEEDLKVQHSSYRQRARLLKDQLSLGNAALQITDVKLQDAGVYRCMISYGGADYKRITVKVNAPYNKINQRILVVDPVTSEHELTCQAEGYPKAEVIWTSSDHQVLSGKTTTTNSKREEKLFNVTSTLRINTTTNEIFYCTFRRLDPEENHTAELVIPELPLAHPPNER

[4] = male, mouse, plasma, PO 10 mg/kg, original compound analyzed
[5] = male, mouse, plasma, PO 10 mg/kg, original compound analyzed, class symbol
[6] = male, mouse, PO 10 mg/kg, plasma, original compound analyzed, class symbol, read-out: Cmax
[7] = NF-κB-luc reporter activation fold, 6 hrs, read-out: Cell Activity EC50
[8] = read-out: PD1-PDL1 HTRF Binding Activity IC50
[9] = male, mouse, plasma, PO 30 mg/kg, original compound (ester) analyzed
[10] = male, mouse, plasma, PO 30 mg/kg, original compound (ester) analyzed, class symbol
[11] = male, mouse, plasma, PO 30 mg/kg, original compound (ester) analyzed, class symbol, read-out: Cmax
[12] = product of ester hydrolysis analyzed after PO 30 mg/kg of the ester (2 after 4, 27 after 26, 65 after 64)

Chain of interaction between PD-1 and PD-L1 expressed on cell surfaces (Q9NZQ7 19-290): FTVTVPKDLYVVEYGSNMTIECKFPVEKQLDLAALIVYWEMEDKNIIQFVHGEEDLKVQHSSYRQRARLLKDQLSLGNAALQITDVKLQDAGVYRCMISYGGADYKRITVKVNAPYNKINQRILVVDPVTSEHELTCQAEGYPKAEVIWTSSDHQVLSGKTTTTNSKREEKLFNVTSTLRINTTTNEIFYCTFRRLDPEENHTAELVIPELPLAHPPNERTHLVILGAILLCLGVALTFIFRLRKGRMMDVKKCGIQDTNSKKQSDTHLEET

Compound | MRT [2, 4] [h] | Tmax [2, 4] [h] | half-life [2, 4] [h] | AUC(0-t) [2, 5] [ng·h/mL] | Cmax [2, 6] [ng/mL] | pEC50 [1, 7] | pIC50 [3, 8] | ester hydrolysis in the bodies of the mice after oral administration [2] | also measured
Cc1c(NC(=O)c2ccc(CNCCO)cn2)cccc1-c1cccc(NC(=O)c2ccc(CNCCO)cn2)c1C [Example 1, N,N′-(2,2′-dimethyl-[1,1′-biphenyl]-3,3′-diyl)bis(5-(((2-hydroxyethyl)amino)methyl)picolinamide)] | 3.3 | 1 | 2.4 | ≤ 500 | ≤ 100 |  |  |  | pEC50 [1]: 6.86; pIC50 [3]: 9.77
Cc1cc(C(=O)Nc2cccc(-c3cccc(NC(=O)c4cc(C)c(CNCCO)cn4)c3C)c2C)ncc1CNCCO [Example 5, N,N′-(2,2′-dimethyl-[1,1′-biphenyl]-3,3′-diyl)bis(5-(((2-hydroxyethyl)amino)methyl)-4-methylpicolinamide)] | 10.2 | 2 | 8.3 |  | 100 to 500 | 7.19 | 9.44 |  | AUC(0-t) [2, 4]: 1680 ng·h/mL
COC(=O)[C@@H]1CCCCN1Cc1cnc(C(=O)Nc2cccc(-c3cccc(NC(=O)c4cc(C)c(CN5CCCC[C@H]5C(=O)OC)cn4)c3C)c2C)cc1C [Example 26, dimethyl 1,1′-(((((2,2′-dimethyl-[1,1′-biphenyl]-3,3′-diyl)bis (azanediyl))bis(carbonyl))bis (4-methylpyridine-6,3-diyl))bis(methylene))(2S,2′S)-bis (piperidine-2-carboxylate)] |  |  |  |  |  |  | 7.19 | no product of ester hydrolysis was detected | MRT [2, 9]: 7 h; Tmax [2, 9]: 6 h; half-life [2, 9]: 3.6 h; AUC(0-t) [2, 10]: > 2000 ng·h/mL; Cmax [2, 11]: > 500 ng/mL
Cc1cc(C(=O)Nc2cccc(-c3cccc(NC(=O)c4cc(C)c(CN5CCCC[C@H]5C(=O)O)cn4)c3C)c2C)ncc1CN1CCCC[C@H]1C(=O)O [Example 27, (2S,2′S)-1,1′-(((((2,2′-dimethyl-[1,1′-biphenyl]-3,3′-diyl)bis(azanediyl))bis(carbonyl))bis(4-methylpyridine-6,3-diyl))bis (methylene))bis(piperidine-2-carboxylic acid)] |  |  |  |  |  | 6.89 | 9.55 |  | Cmax [2, 12]: BQL
COc1cc(C(=O)Nc2cccc(-c3cccc(NC(=O)c4cc(OC)c(CN5CC(C)(O)C5)cn4)c3C)c2C)ncc1CN1CC(C)(O)C1 [Example 46, N,N'-(2,2′-dimethyl-[1,1′-biphenyl]-3,3′-diyl)bis(5-((3-hydroxy-3-methylazetidin-1-yl)methyl)-4-methoxypicolinamide)] | 15.5 | 4 | 10.7 | 500 to 2000 | ≤ 100 | 7.19 | 9.60 |  | 
COC(=O)[C@@H]1CCCCN1Cc1cnc(C(=O)Nc2cccc(-c3cccc(NC(=O)c4cc(OC)c(CN5CCCC[C@H]5C(=O)OC)cn4)c3C)c2C)cc1OC [Example 64] |  |  |  |  |  | 5.73 | 7.97 | no product of ester hydrolysis was detected | MRT [2, 9]: 4.6 h; Tmax [2, 9]: 2 h; half-life [2, 9]: 3.7 h; AUC(0-t) [2, 10]: > 2000 ng·h/mL; Cmax [2, 11]: > 500 ng/mL
COc1cc(C(=O)Nc2cccc(-c3cccc(NC(=O)c4cc(OC)c(CN5CCCC[C@H]5C(=O)O)cn4)c3C)c2C)ncc1CN1CCCC[C@H]1C(=O)O [Example 65, (2S,2S)-1,1′-(((((2,2′-dimethyl-[1,1′-bipheny]-3,3′-diyl)bis(azanediyl))bis(carbonyl))bis(4-methoxypyridine-6,3-diyl))bis(methylene))bis(piperidine-2-carboxylic acid)] |  |  |  |  |  | 6.88 | 9.92 |  | Cmax [2, 12]: BQL
COc1cc(C(=O)Nc2cccc(-c3cccc(NC(=O)c4cc(OC)c(CNCCO)cn4)c3Cl)c2C)ncc1CNCCO [Example 141, N,N′-(2-chloro-2′-methyl-[1,1′-biphenyl]-3,3′-diyl)bis(5-(((2-hydroxyethyl)amino)methyl)-4-methoxypicolinamide)] |  |  |  |  |  | 7.13 | 9.12 |  | Cmax ([2]; PO 10 mg/kg, plasma, original compound analyzed): BQL

The next lines start with results.

MRT [2, 4] [h] | Tmax [2, 4] [h] | half-life [2, 4] [h] | AUC(0-t) [2, 5] [ng·h/mL] | Cmax [2, 6] [ng/mL] | pEC50 [1, 7] | pIC50 [3, 8] | Compound | ester hydrolysis in the bodies of the mice after oral administration [2] | also measured
16.7 | 0.5 | 12.9 | > 2000 | 100 to 500 | 7.43 | 9.70 | COc1cc(C(=O)Nc2cccc(-c3cccc(NC(=O)c4cc(OC)c(CNCCO)cn4)c3C)c2C)ncc1CNCCO [Example 3, N,N′-(2,2′-dimethyl-[1,1′-biphenyl]-3,3′-diyl)bis(5-(((2-hydroxyethyl)amino)methyl)-4-methoxypicolinamide)] |  | 
 |  |  |  |  | 5.87 | 10.19 | COC(=O)[C@@H](CO)NCc1cnc(C(=O)Nc2cccc(-c3cccc(NC(=O)c4cc(OC)c(CN[C@H](CO)C(=O)OC)cn4)c3C)c2C)cc1OC [Example 4, dimethyl 2,2′-((((((2,2′-dimethyl-[1,1′-biphenyl]-3,3′-diyl)bis(azanediyl))bis(carbonyl))bis(4-methoxypyridine-6,3-diyl))bis(methylene))bis(azanediyl))(2R,2′R)-bis(3-hydroxypropanoate)] | rapidly became corresponding acids | Cmax ([2]; PO 30 mg/kg, original compound (ester) analyzed): BQL
5.4 | 2 | 3 | 500 to 2000 |  | 6.73 | 9.39 | Cc1cc(C(=O)Nc2cccc(-c3cccc(NC(=O)c4cc(C)c(CNC(CO)CO)cn4)c3C)c2C)ncc1CNC(CO)CO [Example 8, N,N′-(2,2′-dimethyl-[1,1′-biphenyl]-3,3′-diy)bis(5-(((1,3-dihydroxypropan-2-yl)amino)methyl)-4-methylpicolinamide)] |  | Cmax ([2]; male, mouse, PO 10 mg/kg, plasma, original compound analyzed, read-out: Cmax): 319 ng/mL
 |  |  |  |  | 6.53 | 8.80 | COC(=O)[C@@H](CO)NCc1cnc(C(=O)Nc2cccc(-c3cccc(NC(=O)c4cc(C5CC5)c(CN[C@H](CO)C(=O)OC)cn4)c3C)c2C)cc1C1CC1 [Example 104] | rapidly became corresponding acids | Cmax ([2]; Table 3, PO 10 mpk, original compound (ester 104) analyzed): BQL

Reference: US11459339B2, “Biaryl derivative, preparation method thereof and pharmaceutical application thereof” (Abbisko Therapeutics Co., Ltd., priority 2018, dated 2022)
